Assay results reported in US7090853B2, “Noscapine derivatives as adjuvant compositions and methods of use thereof” (Emory University, priority 1999, dated 2006).

Tested on: HL-60 cells
Assay: Apoptosis of HL-60 cells, DAPI staining of nuclear chromatin
Assay type: cell-based
Settings: for Apoptic Cell Percentage: 24 hours; for Initiation of apoptosis: DAPI staining
Method: Morphological changes in the nuclear chromatin of HL-60 cells undergoing apoptosis were detected by staining with 4′,6-diamidino-2-phenylindole (DAPI). In brief, 0.5×10^6 to 3×10^6 cells were fixed with 4% glutaraledebyde, 0.2% Triton x-100, in PBS and incubated at room temperature for 10 min., then centrifuged at 1000×g for 10 min., resuspended in 20 μl 0.1% DAPI ethanol. Following 15 min, incubation at room temperature, at 10 μl aliquot was placed on a glass slide, and 400 cells per slide were scored for the incidence of apoptotic chromatin changes with a fluorescence microscope.

[1] = 20 μM in DMSO, two trials, result for each trial shown

Row | Compound | Apoptic Cell Percentage [1] | Apoptic Cell Percentage (50 μM in DMSO) | Initiation of apoptosis
1 | 1,3-dihydro-4,5-dimethoxy-1-[1-(8-methoxy-2-methyl-6,7-methylenedioxy-1,2,3,4-tetrahydroisoquinoliyl)]isobenzofuran-BH3 [Compound 3] | 37.28% | 39% | initiate apoptosis
2 | COc1ccc2c(c1OC)CO[C@@H]2[C@H]1c2c(cc3c(c2OC)OCO3)CCN1C [Compound 4, 1,3-dihydro-4,5-dimethoxy-1-[1-(8-methoxy-2-methyl-6,7-methylenedioxy-1,2,3,4-tetrahydroixo-quinolinyl)]isobenzofuran] | 48.32% | 52% | initiate apoptosis
